Data from patent publication US10130590B2, “Methods of treating cancer with atovaquone-related compounds” (DANA-FARBER CANCER INSTITUTE, INC., priority 2013, dated 2018).

Key:
[1] = system: STAT1; experiment: STAT1 cell-based luciferase reporter system
Procedure: (§1) To determine if atovaquone inhibits STAT3, it was tested in a cell-based reporter system of STAT3 transcriptional activity (Nelson E A, et al. (2008) Nifuroxazide inhibits survival of multiple myeloma cells by directly inhibiting STAT3. Blood 112(13):5095-5102). These cells lack basal STAT3 activation; upon IL-6 treatment, STAT3 becomes activated and drives transcription of a STAT3-dependent luciferase reporter gene. The STAT3-luc reporter cells were pre-treated with drug for 1 hour, then stimulated with IL-6 (10 ng/ml) for 5 hr. Activity of firefly luciferase was measured and normalized by cell viability (Cell Titer Glo). […] To determine if atovaquone inhibits STAT3 activity specifically over other transcription factors, it was tested in cell-based reporter systems for STAT1 and STAT5, two other STAT family members, and NF-κB, an unrelated transcription factor.

[2] = system: STAT5; experiment: STAT5 cell-based luciferase reporter system
Procedure: as §1

[3] = system: K562 and AML2 cells; experiment: Annexin V/PI and cell cycle analysis, K562 and AML2; assay type: cell-based; settings: K562 20 μM, AML2 15 μM, 48 hours
Procedure: Annexin V/PI staining was performed using Annexin V:FITC Apoptosis Detection Kit I (BD Biosciences). Staining for cell cycle analysis was performed as previously described (267). Staining for cell-surface receptors was performed in 50 μl PBS+2% FBS with 2 μl antibody to IL6R (BioLegend #352803) or 5 μl antibody to gp130 (BD Biosciences #555757) for 20 minutes on ice in the dark. Cells were washed twice, then resuspended in 300 μl of the same buffer. Samples were analyzed on a BD FACSCanto II machine. Transfection and siRNA Cells were reverse-transfected using Lipofectamine RNAiMAX (Invitrogen); the culture medium was changed 24 hours later. Control siRNA (D-001210-02) and REDD1 siRNA (M-010855-01) were from Thermo Scientific Dharmacon.
K562 and AML2 cells treated with atovaquone (20 and 15 μM, respectively) for 48 hours. […] Therefore, it was hypothesized that atovaquone kills cancer cells through STAT3-related and STAT3-independent mechanisms. Accordingly, the hypothesis that atovaquone inhibited another common pathway in cancer pathogenesis was considered. In particular, the mTOR pathway, which is known to be involved in cancer cell growth and survival, was investigated.

[4] = system: mTOR pathway; experiment: Western blot of S6 phosphorylation in TSC2 or REDD1 knockout MEFs; assay type: cell-based, mouse; settings: 25 μM, 2.5 hours
Procedure: Mouse embryonic fibroblasts (MEFs) were cultured in DMEM+10% FBS. TSC2-null (see, Zhang et al. J Clin Invest. 2003; 112(8):1223-1233) and REDD1-null (see, Sofer et al. Mol. Cell. Biol. July 2005 vol. 25 no. 14 5834-5845) MEFs, along with MEFs from the littermate controls, were kind gifts from Dr. John Blenis and Dr. Leif Ellisen, respectively. HEL (see, Iwama et al. Mol. Cell. Biol. June 1999 vol. 19 no. 6 3940-3950) was a kind gift of Dr. Daniel G. Tenen and grown in RPMI-1640+10% FBS. OCI-AML2 and OCI-AML3 (see, Grunberger et al. Blood Dec. 1, 2003 vol. 102 no. 12 4153-4158), and MOLM-13 (German Collection of Microorganisms and Cell Cultures (DSMZ, Braunschweig, Germany)) were kind gifts of Dr. James D. Griffin and grown in RPMI-1640+10% FBS. MM.1S (ATCC) was a kind gift of Dr. Kenneth C. Anderson and grown in RPMI-1640+10% FBS. SET2 (see, Koppikar et al. Nature 489, 155-159 (6 Sep. 2012)) was a kind gift of Dr. Ross L. Levine and grown in RPMI-1640+10% FBS. HL60 (ATCC) was a kind gift of Dr. James D. Griffin and grown in RPMI-1640+10% FBS. […] Molecular Pharmacology 78(5):903-908; and Walker S R, et al. (2009) Reciprocal effects of STAT5 and STAT3 in breast cancer. Molecular Cancer Research: MCR 7(6):966-976). Peripheral blood mononuclear cells (PBMCs) were isolated from healthy donors by Ficoll density gradient centrifugation and maintained in RPMI-1640+10% FBS. […]

[5] = system: unfolded protein response (UPR); experiment: Other UPR branches: XBP1 splicing, ATF6 cleavage, UPR target genes; assay type: cell-based
Procedure: Total RNA was reverse transcribed using random hexamers and assayed by qRT-PCR as previously described (see, Grivennikov S I, Greten F R, & Karin M (2010) Immunity, inflammation, and cancer. Cell 140(6):883-899).
In asking how atovaquone induces REDD1, a possible role for ATF4, which regulates REDD1 expression was considered. ATF4 is regulated mainly at the level of translation and is induced upon phosphorylation of eIF2α. […] K562 and AML2 cells, which lack STAT3 activation, were treated with rapamycin for 72 hours. […] For these reasons, it was hypothesized that atovaquone induces eIF2α phosphorylation, with a resulting increase in ATF4 protein and signaling. U266, K562, and SKBR3 cells were treated with atovaquone (20, 20, 25 μM respectively). […] The phospho-eIF2α/ATF4 pathway represents one branch of the UPR, whose other branches consist of ATF6 cleavage and IRE1-mediated XBP1 splicing. […] Thus, atovaquone selectively activates the phospho-eIF2α/ATF4 branch of the UPR. […] Consequently, atovaquone inhibition of STAT3 is not secondary to UPR activation.

O=C1C(O)=C([C@H]2CC[C@H](c3ccc(Cl)cc3)CC2)C(=O)c2ccccc21 [atovaquone, trans-2-[4-(4-chlorophenyl)cyclohexyl]-3-hydroxy-1,4-naphthalenedione]
STAT1 transcription factor activity [1]: modestly affected at the higher doses
STAT5 transcription factor activity [2]: modestly affected at the higher doses
mode of loss of viability [3]: apoptosis and cell cycle arrest
S6 phosphorylation in MEFs with knockout of TSC2 or REDD1 [4]: no effect on S6 phosphorylation
levels of BiP [5]: no effect on levels of BiP
ATF6 cleavage ([5]; SKBR3, K562, U266, 25, 20, 20 μM): did not induce
spliced XBP1 ([5]; U266, K562, SKBR3, 20, 20, 25 μM, 6 hours): did not induce spliced XBP1
UPR target gene expression ([5]; U266, K562, SKBR3, 6 hours, in contrast to tunicamycin and thapsigargin): did not induce any UPR target genes other than those downstream of ATF4
